Series [1] concerns LPS-induced NF-κB/AP-1 transcriptional activity in THP-1Blue cells. Description: LPS-induced NF-κB/AP-1 reporter (secreted alkaline phosphatase) activity in THP-1Blue cells. Type of series: cell-based, human. The note with it: for inhibitory activity in THP-1Blue cells (in words): LPS-induced NF-κB/AP-1 reporter activity; for IC50: THP-1Blue cells, 30 min pretreatment, 250 ng/mL LPS for 24 h, alkaline phosphatase in supernatant, read-out: AP Production IC50. The protocol: THP-1 cells are a human monocyte cell line that was developed from a monocyte isolated from the peripheral blood of an acute monocytic leukemia patient. This cell line is used as a monocyte/macrophage model in immunology research. The THP-1Blue cells obtained from InvivoGen (San Diego, CA, USA) are THP-1 cells that were stably transfected with a secreted embryonic alkaline phosphatase gene that is under control of a NF-κB/AP-1-inducible promoter. For this study, THP-1Blue cells were cultured at 37 °C in a humidified atmosphere containing 5% CO2 in RPMI 1640 medium (Mediatech Inc., Herndon, VA, USA) supplemented with 10% (v/v) fetal bovine serum (FBS), 100 μg/mL streptomycin, 100 U/mL penicillin, 100 μg/mL phleomycin (Zeocin), and 10 μg/mL blasticidin S (all from Sigma-Aldrich, St. Louis, MO, USA).
To measure the activation of AP-1/NF-κB, the THP-1Blue cells (2 × 10^5 cells/well) were pretreated with the test compounds or dimethyl sulfoxide (DMSO; 1% final concentration) for 30 min, followed by the addition of 250 ng/mL of lipopolysaccharide (LPS; from Escherichia coli strain 0111:B4) for 24 h, and alkaline phosphatase activity was measured in the cell supernatants using the QUANTI-Blue mix (InvivoGen) as the absorbance at 655 nm and compared with positive control samples (LPS). The concentration of the compound that caused 50% inhibition of the NF-κB reporter activity (IC50) was calculated.

A further series has as its system THP-1Blue cells. Description: Cytotoxicity, CellTiter-Glo Luminescent Cell Viability Assay. Type of series: cell-based, human. Conditions: 24 h, concentrations up to 50 µM. The method, then:
Cytotoxicity was analyzed with a CellTiter-Glo Luminescent Cell Viability Assay Kit from Promega (Madison, WI, USA) according to the manufacturer’s protocol. THP-1Blue cells were treated with varying concentrations of the test compounds (up to 50 µM) and cultivated for 24 h. After treatment, the cells were allowed to equilibrate to room temperature for 30 min, the substrate was added, and the samples were analyzed with a Fluoroscan Ascent FL (Thermo Fisher Scientific, Waltham, MA, USA).
On the technique in general: ATP-based viability assays read luminescence as a measure of living cells.

A further series addresses T1, JNK1 (Homo sapiens, UniProt P45983).
T1 construct: purchased Eurofins Pharma Discovery (KINOMEscan)
Description: KINOMEscan ATP site-dependent binding assay. Conditions: duplicate. The protocol: (§1) Binding reactions were performed at room temperature for 1 h, and the fraction of kinase not bound to the test compound was determined by capture with an immobilized affinity ligand and quantified by quantitative polymerase chain reaction. The primary screening at fixed concentrations of the compound was performed in duplicate.

The next series concerns the target T2, JNK2 (Homo sapiens, UniProt P45984).
T2 construct: purchased Eurofins Pharma Discovery (KINOMEscan)
Description: KINOMEscan ATP site-dependent binding assay. Conditions: duplicate. The method, then:
as §1

The target in the next series is T3, JNK3 (Homo sapiens, UniProt P53779).
T3 construct: purchased Eurofins Pharma Discovery (KINOMEscan)
Description: KINOMEscan ATP site-dependent binding assay. Conditions: duplicate. The method, then:
as §1

Where two headings read alike, the source gives them in different places.

For orientation: IC50 means the concentration at which inhibition is half-maximal. Broadly, the melting point is the temperature of the solid-liquid transition. The Kd is the concentration at which binding is half-saturated.

T2 sequence (P45984 whole entry): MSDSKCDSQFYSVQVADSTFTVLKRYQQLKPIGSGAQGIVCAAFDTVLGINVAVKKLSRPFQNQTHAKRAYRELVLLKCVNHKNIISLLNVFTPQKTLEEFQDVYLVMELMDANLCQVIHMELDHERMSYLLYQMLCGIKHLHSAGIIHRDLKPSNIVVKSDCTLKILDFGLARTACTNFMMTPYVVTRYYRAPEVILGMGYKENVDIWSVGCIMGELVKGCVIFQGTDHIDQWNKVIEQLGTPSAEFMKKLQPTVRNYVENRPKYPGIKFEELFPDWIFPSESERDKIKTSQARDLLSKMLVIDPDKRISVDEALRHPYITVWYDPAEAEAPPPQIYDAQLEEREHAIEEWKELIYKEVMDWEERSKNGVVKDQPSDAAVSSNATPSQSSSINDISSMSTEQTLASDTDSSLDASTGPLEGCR
T1 sequence (P45983 whole entry): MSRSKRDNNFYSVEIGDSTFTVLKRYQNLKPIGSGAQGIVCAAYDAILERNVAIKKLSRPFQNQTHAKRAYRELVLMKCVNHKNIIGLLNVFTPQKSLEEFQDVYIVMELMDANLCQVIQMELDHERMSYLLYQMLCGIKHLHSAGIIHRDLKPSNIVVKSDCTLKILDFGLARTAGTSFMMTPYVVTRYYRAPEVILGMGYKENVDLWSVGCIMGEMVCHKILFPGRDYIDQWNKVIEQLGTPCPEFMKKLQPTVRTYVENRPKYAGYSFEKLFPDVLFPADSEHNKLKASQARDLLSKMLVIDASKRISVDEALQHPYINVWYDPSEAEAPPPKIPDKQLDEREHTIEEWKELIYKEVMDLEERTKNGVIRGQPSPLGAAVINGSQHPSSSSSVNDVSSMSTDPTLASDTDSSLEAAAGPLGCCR
T3 sequence (P53779 whole entry): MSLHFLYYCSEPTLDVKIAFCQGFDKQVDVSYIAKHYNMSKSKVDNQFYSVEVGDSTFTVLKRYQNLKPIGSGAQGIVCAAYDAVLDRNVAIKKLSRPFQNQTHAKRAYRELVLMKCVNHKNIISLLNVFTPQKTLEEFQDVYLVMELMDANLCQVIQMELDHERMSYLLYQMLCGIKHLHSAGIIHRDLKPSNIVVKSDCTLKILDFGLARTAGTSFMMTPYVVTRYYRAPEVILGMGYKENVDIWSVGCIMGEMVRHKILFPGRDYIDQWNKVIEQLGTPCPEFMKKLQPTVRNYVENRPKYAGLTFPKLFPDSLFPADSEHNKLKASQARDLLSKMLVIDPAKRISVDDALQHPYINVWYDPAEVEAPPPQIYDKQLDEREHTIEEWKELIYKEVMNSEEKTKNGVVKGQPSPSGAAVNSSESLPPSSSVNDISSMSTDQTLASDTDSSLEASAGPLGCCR

For “5-{[4-(Methanesulfonyl)phenyl]methoxy}-3-(thiophen-3-yl)pyrazolo[1,5-a]quinazoline [compound 20]”, in series [1], the “inhibitory activity in THP-1Blue cells (in words)” value is on record as “moderate activity” and the concentration for half-maximal inhibition (IC50) was 13.3 ± 2.6 µM. Besides, the Cytotoxicity result in the series with THP-1Blue cells is given as “N.T. (no cytotoxicity was found in THP-1Blue cells at concentrations up to 50 µM)”.
`CSc1ccc(Cn2c(=O)c3ccccc3n3ncc(C#N)c23)cc1` (hydrate or solvate) [7e] displayed a melting point of 189 to 192 °C.
`CSc1ccc(Cn2c(=O)c3ccccc3n3nccc23)cc1` (hydrate or solvate) [7f] gave a melting point of 137 to 139 °C.
`NC(=O)c1cnn2c1nc(OCc1ccc(S(N)(=O)=O)cc1)c1ccc(Cl)cc12` (hydrate or solvate) [23c, 8-Chloro-5-(4-sulfamoylbenzyloxy)pyrazolo[1,5-a]quinazoline-3-carboxamide] registered a melting point of 177 to 180 °C.
With `N#Cc1cnn2c1[nH]c(=O)c1ccc([N+](=O)[O-])cc12` [2c], the melting point lay within 280 to 283 °C.
The same measure, in the same setting: to `N#Cc1cnn2c1[nH]c(=O)c1cc([N+](=O)[O-])ccc12` [2d] belongs greater than 295 °C; to `CCOC(=O)c1cnn2c1[nH]c(=O)c1ccc([N+](=O)[O-])cc12` [4c], 195 to 197 °C; to `CCOC(=O)c1cnn2c1[nH]c(=O)c1cc([N+](=O)[O-])ccc12` [4d], 217 to 220 °C.
Still for that read-out and setting: then `CCOC(=O)c1cnn2c3ccccc3c(=O)n(Cc3ccc(S(N)(=O)=O)cc3)c12` [7c], with 224 to 226 °C.
Regarding `COc1nc2c(C(N)=O)cnn2c2ccccc12` [13a, 5-Methoxypyrazolo[1,5-a]quinazoline-3-carboxamide], the melting point was 246 to 247 °C. Moreover, the IC50 in series [1] (Homo sapiens) was 24.4 ± 3.1 µM. Further, in the series on THP-1Blue cells, the Cytotoxicity result is given as “N.T. (no cytotoxicity was found in THP-1Blue cells at concentrations up to 50 µM)”.
Compound `NC(=O)c1cnn2c1nc(OCc1ccccc1Cl)c1ccccc12` [13d] had a melting point of 227 to 229 °C.
As to `NC(=O)c1cnn2c1nc(OCc1cccc(Cl)c1)c1ccccc12` [13e], the melting point is 242 to 245 °C.
The compound `NC(=O)c1cnn2c1nc(OCc1ccc(Br)cc1)c1ccccc12` [13f] had a melting point of 243 to 244 °C.
Same read-out and setting: then `Cc1ccccc1COc1nc2c(C(N)=O)cnn2c2ccccc12` [13g], with 226 to 227 °C.
In the case of `COc1cccc(COc2nc3c(C(N)=O)cnn3c3ccccc23)c1` [13h], the melting point is 210 to 212 °C.
Take `NC(=O)c1cnn2c1nc(OCc1ccc(S(N)(=O)=O)cc1)c1ccccc12` [13i, 5-[(4-Sulfamoylbenzyl)oxy]pyrazolo[1,5-a]quinazoline-3-carboxamide]: the melting point fell in the range of 167 to 168 °C. In addition, the half-inhibitory concentration (IC50) in series [1] (Homo sapiens) is 9.7 ± 2.4 µM. Further, the Cytotoxicity result in the series with THP-1Blue cells is “N.T. (no cytotoxicity was found in THP-1Blue cells at concentrations up to 50 µM)”. On JNK1, the dissociation constant (Kd) is 10.9 ± 1.4 µM. Further, the equilibrium dissociation constant (Kd) on JNK2 was 18.5 ± 2.3 µM. Further, the Kd on JNK3 is 9 ± 1.2 µM.
In turn, `CSc1ccc(Cn2c(=O)c3ccccc3n3ncc(C(N)=O)c23)cc1` [14c] registered a melting point of 276 to 279 °C.
Compound `c1ccc(COc2nc3c(-c4ccsc4)cnn3c3ccccc23)cc1` [21a] came in with a melting point of 179 to 181 °C.
For the compound `Nc1ccccc1COc1nc2c(-c3ccsc3)cnn2c2ccccc12` [21b], the melting point was 125 to 126 °C.
Take `COc1nc2c(C(N)=O)cnn2c2cc(Cl)ccc12` [23a, 8-Chloro-5-methoxypyrazolo[1,5-a]quinazoline-3-carboxamide]: the melting point was 288 to 290 °C. Further, in series [1] (Homo sapiens), the concentration for half-maximal inhibition (IC50) was 7.9 ± 1.6 µM. Besides, in the series on THP-1Blue cells, the Cytotoxicity result was “N.T. (no cytotoxicity was found in THP-1Blue cells at concentrations up to 50 µM)”.
Consider `NC(=O)c1cnn2c1nc(OCc1ccc(S(N)(=O)=O)cc1)c1ccc(Cl)cc12` [23c, 8-Chloro-5-(4-sulfamoylbenzyloxy)pyrazolo[1,5-a]quinazoline-3-carboxamide], for which, in series [1] (Homo sapiens), the IC50 came out at 12.2 ± 2.1 µM. Further, the Cytotoxicity result with THP-1Blue cells is “N.T. (no cytotoxicity was found in THP-1Blue cells at concentrations up to 50 µM)”.
With `COc1nc2c(C(N)=O)cnn2c2cc([N+](=O)[O-])ccc12` [33a, 5-Methoxy-8-nitropyrazolo[1,5-a]quinazoline-3-carboxamide], the IC50 in series [1] (Homo sapiens) is 14.1 ± 2.9 µM. Also, the Cytotoxicity entry in the series with THP-1Blue cells is listed as “N.T. (no cytotoxicity was found in THP-1Blue cells at concentrations up to 50 µM)”.
In turn, `COc1nc2c(C(N)=O)cnn2c2ccc([N+](=O)[O-])cc12` [33b, 5-Methoxy-7-nitropyrazolo[1,5-a]quinazoline-3-carboxamide] gave a melting point of 269 to 271 °C. Also, in series [1] (Homo sapiens), the IC50 worked out at 18.2 ± 2.5 µM. For the same compound, in the series with THP-1Blue cells, the Cytotoxicity entry is reported as “N.T. (no cytotoxicity was found in THP-1Blue cells at concentrations up to 50 µM)”.
As to `CNc1nc2c(C#N)cnn2c2cc([N+](=O)[O-])ccc12` [42a, 5-(Methylamino)-8-nitropyrazolo[1,5-a]quinazoline-3-carbonitrile], the melting point was greater than 300 °C. The IC50 in series [1] (Homo sapiens) is 30.1 ± 3.3 µM. Moreover, the “inhibitory activity in THP-1Blue cells (in words)” value in series [1] was “moderate activity”. Besides, the Cytotoxicity entry in the series with THP-1Blue cells is given as “N.T. (no cytotoxicity was found in THP-1Blue cells at concentrations up to 50 µM)”.
`N#Cc1cnn2c1nc(Nc1ccc(N)cc1)c1ccc([N+](=O)[O-])cc12` [42c] showed a melting point greater than 295 °C.
`N#Cc1cnn2c1nc(Nc1ccc(N)cc1)c1cc([N+](=O)[O-])ccc12` [42d] yielded a melting point greater than 295 °C.
On to `COc1nc2c(C(N)=O)cnn2c2cc(N)ccc12` [46a], for which the melting point was greater than 300 °C.
The compound `CNc1nc2c(C#N)cnn2c2cc(N)ccc12` [46b] registered a melting point greater than 300 °C.
Same read-out and setting: to `CNc1nc2c(C(N)=O)cnn2c2cc(N)ccc12` [46c] belongs greater than 300 °C; to `CCOC(=O)c1cnn2c1ncc1c(=O)nc[nH]c12` [53a], greater than 300 °C; to `O=c1nc[nH]c2c1cnc1ccnn12` [53b], greater than 300 °C.
For `COc1ccc2c(c1)-n1ncc(C(=O)NCc3ccccc3)c1NC2` [58c], the half-inhibitory concentration (IC50) was 39.1 µM in series [1] (Homo sapiens) and 34.1 ± 4.1 µM in series [1]. Also, in the series on THP-1Blue cells, the Cytotoxicity result is listed as “N.T. (no cytotoxicity was found in THP-1Blue cells at concentrations up to 50 µM)”.
Take `C[S+]([O-])c1ccc(Cn2c(=O)c3ccccc3n3ncc(I)c23)cc1` (stereo not shown) [compound 9]: the melting point was in the range of 198 to 201 °C.
Turning to `c1ccc(CNc2nc3c(-c4ccsc4)cnn3c3ccccc23)cc1` [compound 22], the melting point fell in the range of 176 to 177 °C.
Consider `CN(C)/C=N/C(=O)c1cnn2c1[nH]c(=O)c1ccc(Cl)cc12` [compound 26, (E)-8-Chloro-N-[(dimethylamino)methylene]-5-oxo-4,5-dihydropyrazolo[1,5-a]quinazoline-3-carboxamide], for which the melting point fell in the range of 288 to 290 °C. For the same compound, in series [1] (Homo sapiens), the half-inhibitory concentration (IC50) came out at 49.3 ± 4.6 µM. Besides, the Cytotoxicity result with THP-1Blue cells was “N.T. (no cytotoxicity was found in THP-1Blue cells at concentrations up to 50 µM)”.
With `CCOC(=O)c1cnn2c1nc(Nc1ccc(N)cc1)c1cc([N+](=O)[O-])ccc12` [compound 40], the melting point was 269 to 271 °C.
With `CNc1nc2c(C(N)=O)cnn2c2cc([N+](=O)[O-])ccc12` [compound 43, 5-(Methylamino)-8-nitropyrazolo[1,5-a]quinazoline-3-carboxamide], the melting point is greater than 300 °C. Also, the IC50 in series [1] (Homo sapiens) turned out to be 11.8 ± 2.2 µM. Besides, the Cytotoxicity entry in the series with THP-1Blue cells is reported as “N.T. (no cytotoxicity was found in THP-1Blue cells at concentrations up to 50 µM)”.
`COc1nc2c(C#N)cnn2c2cc(N)ccc12` [compound 47, 8-amino-5-methoxy-PQ-3-carbonitrile] returned a melting point greater than 300 °C.
Same read-out and setting: then `Cn1c(=O)c2ccc(N)cc2n2ncc(C#N)c12` [compound 48], with 286 to 288 °C.
In turn, `Cn1c(=O)c2ccc(N)cc2n2ncc(C(N)=O)c12` [compound 49] registered a melting point greater than 300 °C.

The values above are taken from PMC11173647, “Anti-Inflammatory Activity of Pyrazolo[1,5-a]quinazolines” (Molecules, 2024).
